Results from patent US20250230149A1, “MGLUR5 MODULATING COMPOUNDS, COMPOSITIONS, AND METHODS OF USE” (Allyx Therapeutics, Inc., priority 2022, published 2025).

Experiments:
Assay type in all cases: in vitro ADME
P-glycoprotein (P-gp) = target: T1, P-glycoprotein (P-gp) (Homo sapiens, UniProt P08183); experiment: In vitro inhibition of human transporter P-gp; details: in vitro cell test system; read-out: IC50, inhibition of probe substrate transport via P-gp
T1 construct: host or cells: unspecified cell test systems
Experimental: (§1) The in vitro potential for Compound 1 Form A to be an inhibitor of the human transporters P-glycoprotein (P-gp), […] (OATP) 1B1 and OATP1B3 was assessed in various in vitro cell test systems, and of BSEP in membrane vesicles.
(§2) A decrease in the transporter-mediated activity of probe substrate in the presence of a positive control inhibitor, determined from incubations run alongside test compound, confirmed that the in vitro test systems were capable of identifying transporter inhibitors.

OATP1B1 = target: T2, OATP1B1 (Homo sapiens, UniProt Q9Y6L6); experiment: In vitro inhibition of human transporter OATP1B1; details: in vitro cell test system; read-out: IC50, inhibition of probe substrate transport via OATP1B1
T2 construct: host or cells: unspecified cell test systems
Experimental: as §1, §2

OATP1B3 = target: T3, OATP1B3 (Homo sapiens, UniProt Q9NPD5); experiment: In vitro inhibition of human transporter OATP1B3; details: in vitro cell test system; read-out: IC50, inhibition of probe substrate transport via OATP1B3
T3 construct: host or cells: unspecified cell test systems
Experimental: as §1, §2

BSEP = BSEP (Homo sapiens, UniProt O95342); experiment: In vitro inhibition of BSEP in membrane vesicles; details: read-out: IC50, inhibition of probe substrate transport via BSEP
Experimental: as §1, §2

CYP1A2 [1] = target: T4, CYP1A2 (Homo sapiens, UniProt P05177); experiment: CYP450 reaction phenotyping in Supersomes, CYP1A2
T4 construct: purchased
T4 sequence (P05177 1-516): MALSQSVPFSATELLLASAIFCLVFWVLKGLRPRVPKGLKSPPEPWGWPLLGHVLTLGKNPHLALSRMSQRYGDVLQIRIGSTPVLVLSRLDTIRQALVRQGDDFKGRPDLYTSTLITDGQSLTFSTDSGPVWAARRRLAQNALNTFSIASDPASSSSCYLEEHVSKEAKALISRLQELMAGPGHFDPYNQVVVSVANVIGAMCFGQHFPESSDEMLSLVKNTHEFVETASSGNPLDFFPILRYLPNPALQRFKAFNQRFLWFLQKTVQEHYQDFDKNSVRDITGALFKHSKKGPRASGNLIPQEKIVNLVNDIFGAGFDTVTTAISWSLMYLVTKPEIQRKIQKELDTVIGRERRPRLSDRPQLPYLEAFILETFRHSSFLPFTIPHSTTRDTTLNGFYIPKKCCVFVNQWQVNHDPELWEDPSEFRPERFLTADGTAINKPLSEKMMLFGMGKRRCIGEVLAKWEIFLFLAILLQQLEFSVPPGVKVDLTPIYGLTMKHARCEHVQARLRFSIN
Source text: (§3) In Vitro CYP450 Reaction Phenotyping Study in Supersomes™ Over-Expressing Human CYP Enzymes The CYPP450 enzymes involved in the Phase I metabolism of Compound 1 Form A were investigated in vitro. […] No evidence of Compound 1 metabolism by CYP2B6, CYP2C8, CYP2C9 and CYP2C19 was observed.

CYP2D6 [2] = target: T5, CYP2D6 (Homo sapiens, UniProt P10635); experiment: CYP450 reaction phenotyping in Supersomes, CYP2D6
T5 construct: purchased
Source text: as §3

CYP3A4 [3] = target: T6, CYP3A4 (Homo sapiens, UniProt P08684); experiment: CYP450 reaction phenotyping in Supersomes, CYP3A4
T6 construct: purchased
Source text: as §3

CYP1A2 [4] = target: T4, CYP1A2; experiment: CYP inhibition in human liver microsomes, CYP1A2
Source text: (§4) In Vitro CYP Inhibition of CYP1A2, CYP2C8, CYP2C9, CYP2C19, CYP2D6 and CYP3A4 in Human Liver Microsomes This study assessed the potential inhibitory effect of Compound 1 Form A toward CYP1A2, CYP2C8, CYP2C9, CYP2C19, CYP2D6 and CYP3A4. Known inhibitors of each CYP were used as positive controls.

CYP2C8 = target: T7, CYP2C8 (Homo sapiens, UniProt P10632); experiment: CYP inhibition in human liver microsomes, CYP2C8
T7 construct: purchased
Source text: as §4

CYP2C9 = target: T8, CYP2C9 (Homo sapiens, UniProt P11712); experiment: CYP inhibition in human liver microsomes, CYP2C9
T8 construct: purchased
Source text: as §4

CYP2D6 [5] = target: T5, CYP2D6; experiment: CYP inhibition in human liver microsomes, CYP2D6
Source text: as §4

CYP3A4 [6] = target: T6, CYP3A4; experiment: CYP inhibition in human liver microsomes, CYP3A4
Source text: as §4

CYP3A4 [7] = target: T6, CYP3A4; experiment: Metabolism dependent inhibition in human liver microsomes, CYP3A4
Source text: (§5) In Vitro Metabolite Dependent Inhibition of CYP2D6 and CYP3A4 Study in Human Liver Microsomes
(§6) This study assessed the metabolism dependent inhibition potential of Compound 1 Form A toward CYP3A4 and CYP2D6 in human liver microsomes. Troleandomycin and paroxetine, known metabolism dependent inhibitors of CYP3A4 and CYP2D6, respectively were used as positive controls.

CYP2D6 [8] = target: T5, CYP2D6; experiment: Metabolism dependent inhibition in human liver microsomes, CYP2D6
Source text: as §5, §6

CYP2C19 = CYP2C19 (Homo sapiens, UniProt P33261); experiment: CYP inhibition in human liver microsomes, CYP2C19; parameters: CYP2D6 and CYP3A4 in Human Liver Microsomes; from tissue; host or cells: human liver microsomes
Source text: as §4

T6 sequence (P08684 whole entry): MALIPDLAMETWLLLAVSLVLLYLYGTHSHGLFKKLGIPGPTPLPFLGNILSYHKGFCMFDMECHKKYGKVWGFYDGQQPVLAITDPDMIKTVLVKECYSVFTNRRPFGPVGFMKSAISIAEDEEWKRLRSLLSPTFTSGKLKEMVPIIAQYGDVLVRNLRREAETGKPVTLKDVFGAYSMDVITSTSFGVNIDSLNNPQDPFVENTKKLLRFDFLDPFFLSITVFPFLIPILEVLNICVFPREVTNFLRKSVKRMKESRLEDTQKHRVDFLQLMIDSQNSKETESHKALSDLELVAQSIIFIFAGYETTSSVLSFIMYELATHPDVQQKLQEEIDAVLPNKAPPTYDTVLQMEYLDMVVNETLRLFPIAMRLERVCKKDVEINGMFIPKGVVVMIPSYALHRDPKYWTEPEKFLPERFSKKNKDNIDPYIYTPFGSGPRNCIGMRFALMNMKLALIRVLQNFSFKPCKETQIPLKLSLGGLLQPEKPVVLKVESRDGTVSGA
T5 sequence (P10635 whole entry): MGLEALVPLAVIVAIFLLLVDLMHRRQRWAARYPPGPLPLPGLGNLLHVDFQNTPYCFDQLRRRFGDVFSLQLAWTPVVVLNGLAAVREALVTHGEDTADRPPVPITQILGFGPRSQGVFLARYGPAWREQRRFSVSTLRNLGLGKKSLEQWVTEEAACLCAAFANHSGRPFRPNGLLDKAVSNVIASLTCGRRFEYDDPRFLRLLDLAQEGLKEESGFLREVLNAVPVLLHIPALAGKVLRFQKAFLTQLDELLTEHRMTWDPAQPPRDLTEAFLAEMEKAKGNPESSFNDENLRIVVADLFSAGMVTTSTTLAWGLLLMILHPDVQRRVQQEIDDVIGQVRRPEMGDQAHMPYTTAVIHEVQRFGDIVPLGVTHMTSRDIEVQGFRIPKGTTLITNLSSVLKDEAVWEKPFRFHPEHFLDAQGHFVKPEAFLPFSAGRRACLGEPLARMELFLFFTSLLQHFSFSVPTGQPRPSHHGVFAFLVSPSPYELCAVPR
CYP2C19, sequence (P33261 whole entry): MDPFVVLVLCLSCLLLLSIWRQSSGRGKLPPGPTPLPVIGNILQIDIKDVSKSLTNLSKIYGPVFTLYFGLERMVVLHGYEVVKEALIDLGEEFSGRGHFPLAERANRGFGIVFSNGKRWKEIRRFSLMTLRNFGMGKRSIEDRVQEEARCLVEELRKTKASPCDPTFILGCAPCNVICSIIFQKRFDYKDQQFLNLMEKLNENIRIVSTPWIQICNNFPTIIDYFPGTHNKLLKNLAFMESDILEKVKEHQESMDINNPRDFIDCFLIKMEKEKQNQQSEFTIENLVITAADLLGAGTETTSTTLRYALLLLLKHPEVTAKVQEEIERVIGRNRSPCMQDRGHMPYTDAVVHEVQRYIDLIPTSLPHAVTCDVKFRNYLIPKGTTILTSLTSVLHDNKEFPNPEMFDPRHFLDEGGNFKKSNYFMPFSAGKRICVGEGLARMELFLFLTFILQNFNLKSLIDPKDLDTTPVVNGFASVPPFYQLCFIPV
T8 sequence (P11712 whole entry): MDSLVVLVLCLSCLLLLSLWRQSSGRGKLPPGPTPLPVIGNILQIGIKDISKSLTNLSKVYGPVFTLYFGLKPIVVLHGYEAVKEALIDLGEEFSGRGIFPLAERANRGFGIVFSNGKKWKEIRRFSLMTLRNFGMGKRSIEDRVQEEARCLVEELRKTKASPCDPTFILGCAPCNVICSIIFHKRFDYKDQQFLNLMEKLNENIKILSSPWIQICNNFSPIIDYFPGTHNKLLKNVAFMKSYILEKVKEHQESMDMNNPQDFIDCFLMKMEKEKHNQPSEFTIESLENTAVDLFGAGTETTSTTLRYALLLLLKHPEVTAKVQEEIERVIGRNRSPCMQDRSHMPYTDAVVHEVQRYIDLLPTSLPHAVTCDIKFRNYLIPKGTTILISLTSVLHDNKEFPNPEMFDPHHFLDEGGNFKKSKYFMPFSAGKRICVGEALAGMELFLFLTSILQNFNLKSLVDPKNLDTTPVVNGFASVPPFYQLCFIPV
BSEP, sequence (O95342 whole entry): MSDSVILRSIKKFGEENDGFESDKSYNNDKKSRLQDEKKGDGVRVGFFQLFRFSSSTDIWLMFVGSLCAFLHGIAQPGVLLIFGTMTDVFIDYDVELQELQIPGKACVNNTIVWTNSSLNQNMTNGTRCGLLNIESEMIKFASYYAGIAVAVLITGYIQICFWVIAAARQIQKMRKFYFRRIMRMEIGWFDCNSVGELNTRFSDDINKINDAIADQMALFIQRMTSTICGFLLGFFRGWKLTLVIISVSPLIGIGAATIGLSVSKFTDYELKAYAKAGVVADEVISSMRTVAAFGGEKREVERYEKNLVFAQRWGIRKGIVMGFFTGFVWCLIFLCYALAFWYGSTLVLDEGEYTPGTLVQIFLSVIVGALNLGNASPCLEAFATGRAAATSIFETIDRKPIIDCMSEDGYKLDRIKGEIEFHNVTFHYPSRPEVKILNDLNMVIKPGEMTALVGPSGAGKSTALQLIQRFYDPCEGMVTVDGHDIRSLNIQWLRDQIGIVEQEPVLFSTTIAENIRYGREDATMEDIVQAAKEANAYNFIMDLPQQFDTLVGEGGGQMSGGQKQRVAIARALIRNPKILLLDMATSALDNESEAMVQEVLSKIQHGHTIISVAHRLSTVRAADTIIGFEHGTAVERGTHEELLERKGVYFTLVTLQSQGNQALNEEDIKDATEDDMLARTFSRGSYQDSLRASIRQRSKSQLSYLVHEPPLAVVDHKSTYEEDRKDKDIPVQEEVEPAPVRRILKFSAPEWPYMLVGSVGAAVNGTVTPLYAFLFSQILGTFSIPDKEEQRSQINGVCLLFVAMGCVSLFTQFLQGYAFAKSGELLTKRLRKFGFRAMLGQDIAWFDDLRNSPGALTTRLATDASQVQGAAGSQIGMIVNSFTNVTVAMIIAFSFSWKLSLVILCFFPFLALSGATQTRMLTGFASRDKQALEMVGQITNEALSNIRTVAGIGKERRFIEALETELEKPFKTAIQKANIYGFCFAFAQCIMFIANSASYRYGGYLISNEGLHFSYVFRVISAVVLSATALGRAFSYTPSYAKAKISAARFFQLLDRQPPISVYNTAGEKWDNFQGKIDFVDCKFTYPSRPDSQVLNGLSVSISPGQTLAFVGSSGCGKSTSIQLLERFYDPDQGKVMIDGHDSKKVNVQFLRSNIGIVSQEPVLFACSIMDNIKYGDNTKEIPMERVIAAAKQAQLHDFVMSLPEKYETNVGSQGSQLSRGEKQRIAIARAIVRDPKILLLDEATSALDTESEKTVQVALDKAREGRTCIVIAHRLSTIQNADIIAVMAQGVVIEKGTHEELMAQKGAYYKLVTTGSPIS
T7 sequence (P10632 whole entry): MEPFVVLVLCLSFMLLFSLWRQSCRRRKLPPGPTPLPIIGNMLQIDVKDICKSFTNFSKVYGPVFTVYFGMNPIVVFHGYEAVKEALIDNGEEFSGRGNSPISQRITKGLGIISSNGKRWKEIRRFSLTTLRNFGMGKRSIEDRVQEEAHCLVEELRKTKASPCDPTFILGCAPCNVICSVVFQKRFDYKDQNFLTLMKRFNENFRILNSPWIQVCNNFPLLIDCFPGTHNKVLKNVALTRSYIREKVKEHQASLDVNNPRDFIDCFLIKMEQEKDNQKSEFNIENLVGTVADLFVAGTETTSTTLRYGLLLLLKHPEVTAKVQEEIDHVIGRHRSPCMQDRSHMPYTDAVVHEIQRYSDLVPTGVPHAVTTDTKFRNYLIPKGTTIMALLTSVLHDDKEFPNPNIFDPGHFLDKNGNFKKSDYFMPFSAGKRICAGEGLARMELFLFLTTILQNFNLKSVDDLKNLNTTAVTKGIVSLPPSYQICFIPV
T1 sequence (P08183 whole entry): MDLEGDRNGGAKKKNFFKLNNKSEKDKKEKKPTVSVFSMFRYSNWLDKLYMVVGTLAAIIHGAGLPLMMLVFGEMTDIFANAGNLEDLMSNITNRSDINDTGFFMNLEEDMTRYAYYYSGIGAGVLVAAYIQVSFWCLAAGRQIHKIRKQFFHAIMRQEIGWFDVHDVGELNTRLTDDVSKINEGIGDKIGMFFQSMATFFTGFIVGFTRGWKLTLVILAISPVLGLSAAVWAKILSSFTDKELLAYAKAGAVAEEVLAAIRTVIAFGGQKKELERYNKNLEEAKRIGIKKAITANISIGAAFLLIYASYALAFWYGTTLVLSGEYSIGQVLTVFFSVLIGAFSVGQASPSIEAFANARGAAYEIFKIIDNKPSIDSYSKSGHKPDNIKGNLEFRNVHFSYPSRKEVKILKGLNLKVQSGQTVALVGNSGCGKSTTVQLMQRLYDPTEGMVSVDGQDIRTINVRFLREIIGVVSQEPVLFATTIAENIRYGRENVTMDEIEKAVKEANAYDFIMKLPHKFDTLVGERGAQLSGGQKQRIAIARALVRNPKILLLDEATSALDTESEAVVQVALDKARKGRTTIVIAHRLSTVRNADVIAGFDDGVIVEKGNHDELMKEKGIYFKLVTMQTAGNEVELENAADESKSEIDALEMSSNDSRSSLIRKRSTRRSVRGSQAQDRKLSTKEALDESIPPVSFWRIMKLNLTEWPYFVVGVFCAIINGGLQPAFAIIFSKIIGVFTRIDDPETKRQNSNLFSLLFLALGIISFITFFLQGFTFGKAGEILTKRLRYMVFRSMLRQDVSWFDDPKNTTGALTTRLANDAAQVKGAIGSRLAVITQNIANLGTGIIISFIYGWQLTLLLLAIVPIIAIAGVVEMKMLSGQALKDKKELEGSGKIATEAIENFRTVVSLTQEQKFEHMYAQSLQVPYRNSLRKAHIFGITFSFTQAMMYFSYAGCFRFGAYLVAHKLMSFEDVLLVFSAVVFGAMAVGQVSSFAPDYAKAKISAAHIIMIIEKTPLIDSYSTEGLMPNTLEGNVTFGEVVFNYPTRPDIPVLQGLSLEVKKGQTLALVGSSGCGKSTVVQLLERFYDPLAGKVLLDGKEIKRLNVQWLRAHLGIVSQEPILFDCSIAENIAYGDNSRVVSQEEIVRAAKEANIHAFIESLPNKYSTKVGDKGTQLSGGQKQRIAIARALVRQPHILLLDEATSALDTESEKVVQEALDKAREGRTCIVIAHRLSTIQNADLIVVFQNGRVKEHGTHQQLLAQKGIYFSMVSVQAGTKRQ

`O=C1N[C@H](c2cncc(C#Cc3ccccc3)c2)[C@@H](c2ccccc2Cl)O1` [Compound 1 Form A, (4R,5R)-5-(2-chlorophenyl)-4-(5-(phenylethynyl)pyridin-3-yl)oxazolidin-2-one] gave an IC50 (P-glycoprotein (P-gp)) of 27.7 µM, an IC50 (OATP1B1) of 6.74 µM and an IC50 (OATP1B3) of 32 µM. The IC50 (BSEP) was 13.9 µM, the “predicted contribution to total metabolism” value (shortened to “predicted contribution”) (CYP1A2 [1]; CYP1A2, relative activity of factors method) was 43.1% and the CLint (CYP1A2 [1]; Supersomes, CYP1A2) was 0.261 μL/min/pmol CYP. The half-life (CYP1A2 [1]; human, Supersomes over-expressing human CYP1A2, Supersomes, CYP1A2) was 1.07 h, the “predicted contribution” value (CYP2D6 [2]; CYP2D6, relative activity of factors method) was 18% and the CLint (CYP2D6 [2]; Supersomes, CYP2D6) was 0.984 μL/min/pmol CYP. The half-life (CYP2D6 [2]; human, Supersomes over-expressing human CYP2D6, Supersomes, CYP2D6) was 0.233 h, the “predicted contribution” value (CYP3A4 [3]; CYP3A4, relative activity of factors method) was 38.9% and the CLint (CYP3A4 [3]; Supersomes, CYP3A4) was 0.0786 μL/min/pmol CYP. It also gave a half-life (CYP3A4 [3]; human, Supersomes over-expressing human CYP3A4, Supersomes, CYP3A4) of 2.93 h, an IC50 (CYP1A2 [4]) of 1.95 µM and an IC50 (CYP2C8) of 52.1 µM. For the same compound, the IC50 (CYP2C9) was 12.4 µM, the “inhibition of CYP2D6” value (CYP2D6 [5]) was “no inhibition” and the IC50 (CYP3A4 [6]; atorvastatin only) was 55.7 µM. For the same compound, the “inhibition of CYP3A4” value (CYP3A4 [6]; midazolam as substrate) was “no inhibition”, the “inhibition of CYP3A4” value (CYP3A4 [6]; nifedipine as substrate) was “no inhibition” and the “metabolism dependent inhibition of CYP3A4” value (CYP3A4 [7]) was “not a metabolism dependent inhibitor”. For the same compound, the “metabolism dependent inhibition of CYP2D6” value (CYP2D6 [8]) was “not a metabolism dependent inhibitor” and the IC50 (CYP2C19) was 6.17 µM.
